We go through five molecules from article PMC4858680, “A platinum-based hybrid drug design approach to circumvent acquired resistance to molecular targeted tyrosine kinase inhibitors” (Scientific Reports, 2016).

Read-outs that look alike come from different tables or passages of the source.

Assay [1] addresses T1, EPHA1 (Homo sapiens, UniProt P21709).
T1 sequence (P21709 26-976): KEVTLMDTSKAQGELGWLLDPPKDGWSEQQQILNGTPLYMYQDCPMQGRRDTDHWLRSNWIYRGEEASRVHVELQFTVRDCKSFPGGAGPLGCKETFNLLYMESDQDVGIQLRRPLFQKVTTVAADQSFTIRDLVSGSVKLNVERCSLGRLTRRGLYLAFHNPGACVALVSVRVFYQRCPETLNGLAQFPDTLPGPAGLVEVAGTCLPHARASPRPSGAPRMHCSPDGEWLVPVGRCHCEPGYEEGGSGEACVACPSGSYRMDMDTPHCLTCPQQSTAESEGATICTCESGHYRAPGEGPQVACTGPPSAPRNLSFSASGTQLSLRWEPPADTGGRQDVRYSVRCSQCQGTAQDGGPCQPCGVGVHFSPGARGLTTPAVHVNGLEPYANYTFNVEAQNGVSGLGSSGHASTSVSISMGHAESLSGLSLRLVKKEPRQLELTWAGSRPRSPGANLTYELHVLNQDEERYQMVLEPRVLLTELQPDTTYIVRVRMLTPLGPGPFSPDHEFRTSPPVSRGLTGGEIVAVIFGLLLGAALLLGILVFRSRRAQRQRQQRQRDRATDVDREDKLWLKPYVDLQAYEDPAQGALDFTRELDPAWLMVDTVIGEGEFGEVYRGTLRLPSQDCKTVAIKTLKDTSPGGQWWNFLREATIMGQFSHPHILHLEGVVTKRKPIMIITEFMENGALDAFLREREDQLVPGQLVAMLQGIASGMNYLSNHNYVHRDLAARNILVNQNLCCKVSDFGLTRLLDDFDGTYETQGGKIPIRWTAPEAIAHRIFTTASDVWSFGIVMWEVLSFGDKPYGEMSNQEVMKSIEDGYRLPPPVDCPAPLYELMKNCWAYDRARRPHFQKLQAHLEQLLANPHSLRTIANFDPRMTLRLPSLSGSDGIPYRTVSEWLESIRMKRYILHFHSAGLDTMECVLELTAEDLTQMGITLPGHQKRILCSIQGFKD
The following applies: 10 μM.

The target in assay [2] is T2, YES (Homo sapiens, UniProt P07947).
T2 construct: purchased DiscoveRx Corporation (KINOMEscan service)
In kind it is binding. The following applies: for Percent control: 10 μM.

Assay [3] deals with T3, EPHB6 (Homo sapiens, UniProt O15197).
T3 sequence (O15197 32-1021): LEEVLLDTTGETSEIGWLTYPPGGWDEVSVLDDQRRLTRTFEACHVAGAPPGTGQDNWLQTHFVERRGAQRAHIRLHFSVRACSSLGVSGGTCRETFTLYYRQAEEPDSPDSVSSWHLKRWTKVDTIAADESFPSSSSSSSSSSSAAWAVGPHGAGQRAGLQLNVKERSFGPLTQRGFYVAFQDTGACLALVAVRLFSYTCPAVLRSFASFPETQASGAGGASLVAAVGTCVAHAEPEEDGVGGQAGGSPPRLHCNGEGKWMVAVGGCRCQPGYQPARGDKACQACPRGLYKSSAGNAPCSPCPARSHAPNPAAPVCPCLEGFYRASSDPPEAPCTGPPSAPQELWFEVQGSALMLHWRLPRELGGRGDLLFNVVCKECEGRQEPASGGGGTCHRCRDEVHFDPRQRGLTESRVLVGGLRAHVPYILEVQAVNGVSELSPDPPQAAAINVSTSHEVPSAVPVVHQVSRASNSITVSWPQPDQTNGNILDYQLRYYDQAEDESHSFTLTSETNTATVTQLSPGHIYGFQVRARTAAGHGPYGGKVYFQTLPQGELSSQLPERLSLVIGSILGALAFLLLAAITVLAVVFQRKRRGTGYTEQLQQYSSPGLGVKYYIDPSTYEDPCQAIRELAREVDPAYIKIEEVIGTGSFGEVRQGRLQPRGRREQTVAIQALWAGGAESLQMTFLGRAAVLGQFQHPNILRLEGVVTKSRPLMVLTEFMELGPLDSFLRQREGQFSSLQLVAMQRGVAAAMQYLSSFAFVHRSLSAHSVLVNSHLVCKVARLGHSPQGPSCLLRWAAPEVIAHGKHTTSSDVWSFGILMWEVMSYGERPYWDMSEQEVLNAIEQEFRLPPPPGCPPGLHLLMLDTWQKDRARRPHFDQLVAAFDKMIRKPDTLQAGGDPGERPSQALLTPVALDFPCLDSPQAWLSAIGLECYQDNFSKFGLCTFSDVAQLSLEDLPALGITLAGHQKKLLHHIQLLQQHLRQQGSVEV
The following applies: 10 μM.

Assay [4] has as its target T4, HCK (Homo sapiens, UniProt P08631).
T4 construct: purchased DiscoveRx KINOMEscan
Type of assay: binding. The following applies: 10 μM.

For assay [5], the target named is T5, FLT3 (Homo sapiens, UniProt P36888).
T5 sequence (P36888 27-993): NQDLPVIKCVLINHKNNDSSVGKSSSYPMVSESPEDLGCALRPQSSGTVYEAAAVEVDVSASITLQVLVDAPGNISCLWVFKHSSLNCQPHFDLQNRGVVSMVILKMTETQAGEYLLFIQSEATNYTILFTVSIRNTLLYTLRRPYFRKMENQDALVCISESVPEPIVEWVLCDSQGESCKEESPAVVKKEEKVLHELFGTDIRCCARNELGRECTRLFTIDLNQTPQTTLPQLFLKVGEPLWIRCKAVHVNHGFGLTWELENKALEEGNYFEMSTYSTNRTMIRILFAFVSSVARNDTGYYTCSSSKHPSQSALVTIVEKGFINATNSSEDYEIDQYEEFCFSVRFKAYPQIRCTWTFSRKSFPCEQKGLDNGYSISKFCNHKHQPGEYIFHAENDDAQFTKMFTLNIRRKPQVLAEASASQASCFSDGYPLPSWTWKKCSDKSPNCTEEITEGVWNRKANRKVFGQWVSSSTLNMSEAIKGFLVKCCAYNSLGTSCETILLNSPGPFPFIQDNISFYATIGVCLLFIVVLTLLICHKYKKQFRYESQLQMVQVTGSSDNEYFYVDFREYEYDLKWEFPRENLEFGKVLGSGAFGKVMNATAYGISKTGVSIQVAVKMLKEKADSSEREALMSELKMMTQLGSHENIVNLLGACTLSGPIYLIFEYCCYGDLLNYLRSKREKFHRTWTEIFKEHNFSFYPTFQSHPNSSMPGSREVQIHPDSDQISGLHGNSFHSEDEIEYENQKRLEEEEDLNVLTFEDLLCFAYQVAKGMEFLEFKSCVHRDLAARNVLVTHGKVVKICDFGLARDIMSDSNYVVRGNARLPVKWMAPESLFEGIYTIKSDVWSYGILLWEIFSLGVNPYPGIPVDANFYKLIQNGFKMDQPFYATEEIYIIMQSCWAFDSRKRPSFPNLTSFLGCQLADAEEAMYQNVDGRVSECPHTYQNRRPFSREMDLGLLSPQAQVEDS

T2 sequence (P07947 whole entry): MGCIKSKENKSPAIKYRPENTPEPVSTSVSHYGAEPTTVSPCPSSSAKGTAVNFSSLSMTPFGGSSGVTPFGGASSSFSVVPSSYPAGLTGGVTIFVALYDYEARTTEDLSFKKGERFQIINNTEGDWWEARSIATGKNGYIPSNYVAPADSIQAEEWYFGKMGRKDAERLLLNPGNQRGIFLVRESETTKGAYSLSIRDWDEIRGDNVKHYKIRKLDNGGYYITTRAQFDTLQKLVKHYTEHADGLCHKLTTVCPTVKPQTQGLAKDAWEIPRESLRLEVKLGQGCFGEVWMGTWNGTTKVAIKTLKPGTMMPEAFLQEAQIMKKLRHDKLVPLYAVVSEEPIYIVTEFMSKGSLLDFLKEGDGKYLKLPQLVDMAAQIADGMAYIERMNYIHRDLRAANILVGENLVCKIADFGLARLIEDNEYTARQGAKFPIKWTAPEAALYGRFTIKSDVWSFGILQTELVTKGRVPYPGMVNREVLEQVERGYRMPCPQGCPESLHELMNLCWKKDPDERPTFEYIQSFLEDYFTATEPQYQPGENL
T4 sequence (P08631 whole entry): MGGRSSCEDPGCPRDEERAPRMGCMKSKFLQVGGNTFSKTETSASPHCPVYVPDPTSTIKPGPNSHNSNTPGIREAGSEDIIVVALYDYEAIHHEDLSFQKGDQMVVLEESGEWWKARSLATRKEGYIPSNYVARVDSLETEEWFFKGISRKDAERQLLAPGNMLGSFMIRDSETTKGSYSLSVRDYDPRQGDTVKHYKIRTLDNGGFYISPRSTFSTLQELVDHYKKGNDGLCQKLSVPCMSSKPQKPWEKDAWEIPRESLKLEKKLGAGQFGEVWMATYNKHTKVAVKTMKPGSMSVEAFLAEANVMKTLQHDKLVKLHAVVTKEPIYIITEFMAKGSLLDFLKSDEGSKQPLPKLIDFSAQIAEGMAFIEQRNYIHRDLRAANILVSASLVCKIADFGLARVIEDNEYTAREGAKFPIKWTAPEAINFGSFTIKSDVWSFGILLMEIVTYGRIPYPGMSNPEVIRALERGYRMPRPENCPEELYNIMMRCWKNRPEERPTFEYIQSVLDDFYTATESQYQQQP

Regarding `Cc1ccc(NC(=O)c2ccc(CN3CCN(C)CC3)cc2)cc1Nc1nccc(-c2cccnc2)[n+]1[Pt-2]1([Cl])[NH2+]C2CCCCC2[NH2+]1` (stereo not shown) [1b, oxaliplatin-imatinib], the Percent control in assay [1] came to 86%; in assay [2], 100%; in assay [3], 92%; in assay [4], 82%; in assay [5] (FLT3, 10 μM), 88%.
Regarding `C#Cc1cccc(Nc2c3cc(OCCOC)c(OCCOC)cc3nc[n+]2[Pt@SP2-2]([NH3+])([NH3+])[Cl])c1` [2a, cisplatin-erlotinib], the Percent control in assay [1] was found to be 73%; in assay [2], 100%; in assay [3], 76%; in assay [4], 64%; in assay [5] it was 75.
As to `COc1cc2c(Nc3ccc(Br)cc3F)[n+]([Pt-2]3([Cl])[NH2+]C4CCCCC4[NH2+]3)cnc2cc1OCC1CCN(C)CC1` (stereo not shown) [3b, oxaliplatin-vandetanib], the Percent control in assay [1] stood at 11%; in assay [2], 23%; in assay [3], 2.5%; in assay [5], 49.
For `Cc1ccc(NC(=O)c2ccc(CN3CCN(C)CC3)cc2)cc1Nc1nccc(-c2cccnc2)n1` [Imatinib, reference compound], the Percent control turned out to be 100% in assay [1]; 100% in assay [3]; 100% in assay [4]; 100% in assay [5] (FLT3, 10 μM).
`COc1cc2c(Nc3ccc(Br)cc3F)ncnc2cc1OCC1CCN(C)CC1` [Vandetanib, reference compound]: in assay [2] (read-out: Percent control), the remaining binding at 10 µM worked out at 1.2%.
